Laboratory results as given in BigSolDB 2.1.

N[C@H](Cc1c[nH]c2ccccc12)C(=O)O
solubility (mole fraction)
Settings | in DMF | in ethanol | in isopropanol | in methanol | in water
283.15 K | 0.00714 | 9.34e-05 | 1.29e-05 | 0.000179 | 0.00146
288.15 K | 0.00749 | 0.000112 | 1.57e-05 | 0.000217 | 0.00159
293.15 K | 0.00793 | 0.000135 | 1.9e-05 | 0.000261 | 0.00175
298.15 K | 0.00834 | 0.000165 | 2.26e-05 | 0.000303 | 0.00192
303.15 K | 0.00872 | 0.000202 | 2.64e-05 | 0.000358 | 0.00209
308.15 K | 0.00912 | 0.000243 | 3.09e-05 | 0.000421 | 0.00227
313.15 K | 0.00954 | 0.00029 | 3.62e-05 | 0.000489 | 0.00245
318.15 K | 0.01 | 0.000348 | 4.16e-05 | 0.000575 | 0.00267
323.15 K | 0.0104 | 0.00041 | 4.78e-05 | 0.000671 | 0.00288
328.15 K | 0.0108 | 0.000484 | 5.44e-05 | 0.000779 | 0.00309
333.15 K | 0.0113 | 0.000567 | 6.22e-05 | 0.000894 | 0.00332
